Molecules are shown by their SMILES. Where a name gives a salt, the structure may show the parent alone.

As a reminder, the melting point is the temperature of the solid-liquid transition. Turning to `Nc1nc2ccccc2n1CCCn1c(N)nc2ccccc21` [Compound 1d, 1,3-Bis(2-aminobenzimidazol-1-yl)propane], the melting point was 220 °C (dec.). For `Nc1nc2ccccc2n1CCCCCCn1c(N)nc2ccccc21` (as salt: HCl) [Compound 1b, 1,6-Bis(2-aminobenzimidazol-1-yl)hexane] the value was 145 to 147 °C; for `Nc1nc2ccccc2n1CCn1c(N)nc2ccccc21` [Compound 1e, 1,2-Bis(2-aminobenzimidazol-1-yl)ethane], 257 to 258 °C.

The values are drawn from patent US6569880B2, “Bis(benzimidazole) derivatives serving as potassium blocking agents” (Neurosearch A/S, priority 1998, dated 2003).
